Measurements taken from patent publication US9566342B2, “Compounds for treatment of heart failure” (SOLVOTRIN INNOVATIONS LIMITED, priority 2010, dated 2017).

What was measured:
MMP-9 [1] = assay: PMA-stimulated CaCo2 cells, zymography of media, MMP-9; assay type: cell-based
human colon cancer cells = assay: Colon cancer cell invasiveness, in vitro model; assay type: cell-based; details: low dose, FIG. 10
MMP-8 = MMP-8 (Homo sapiens, UniProt P22894); assay: Direct enzyme inhibition, MMP-8; assay type: biochemical
MMP-9 mRNA = assay: TNFα treated human cardiac fibroblasts, MMP-9 transcription (QPCR); assay type: cell-based; details: HCF
MMP-2 [2] = target: T1, MMP-2 (Homo sapiens, UniProt P08253); assay: Direct inhibition of recombinant MMP-2, fluorogenic substrate; assay type: biochemical; set-up: purchased R&D Systems, Ireland; details: read-out: inhibition of recombinant human MMP-2
T1 sequence (P08253 110-660): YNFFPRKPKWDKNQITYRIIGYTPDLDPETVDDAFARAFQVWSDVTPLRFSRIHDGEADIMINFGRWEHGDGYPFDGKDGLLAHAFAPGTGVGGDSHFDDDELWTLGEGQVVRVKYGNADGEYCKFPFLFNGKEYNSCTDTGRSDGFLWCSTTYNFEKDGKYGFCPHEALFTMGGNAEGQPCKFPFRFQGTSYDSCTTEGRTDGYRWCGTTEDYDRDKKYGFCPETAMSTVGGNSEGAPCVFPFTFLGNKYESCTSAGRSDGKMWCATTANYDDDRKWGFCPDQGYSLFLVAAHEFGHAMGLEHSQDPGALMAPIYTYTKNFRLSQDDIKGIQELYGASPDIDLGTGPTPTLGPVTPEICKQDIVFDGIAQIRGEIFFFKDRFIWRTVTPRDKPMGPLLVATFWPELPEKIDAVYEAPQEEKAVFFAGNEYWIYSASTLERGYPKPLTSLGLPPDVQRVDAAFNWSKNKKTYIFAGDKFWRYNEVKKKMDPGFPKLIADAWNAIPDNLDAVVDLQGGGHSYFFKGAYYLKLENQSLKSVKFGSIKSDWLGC

[3] = Blood pressure in non-human primates; details: cynomolgus monkeys, over dosing period
MMP-9 [4] = assay: Total MMP-9 levels on repeated oral administration in non-human primates; assay type: in vivo, cynomolgus monkeys
[5] = system: Human Peripheral Blood mononuclear cells (PBMC) stimulated with TNF-α; assay: MMPs, TIMP-1 and inflammatory markers in supernatants of PBMC stimulated with TNF-α; assay type: cell-based
MMP-2 mRNA = assay: TNFα treated human cardiac fibroblasts, MMP-2 transcription (QPCR); assay type: cell-based; details: HCF, 10 ng/mL TNFα 72 hours, 75 or 150 μM
[6] = system: Human Ventricular Cardiac Fibroblast (HCF); assay: Human ventricular cardiac fibroblast proliferation (CellTitre-Glo); assay type: cell-based
MMP-2 [7] = target: T1, MMP-2; assay: Model of direct enzyme inhibition, MMP-2 (IC50); assay type: biochemical
MMP-9 [8] = target: T2, MMP-9 (Homo sapiens, UniProt P14780); assay: Direct inhibition of recombinant MMP-9, fluorogenic substrate; assay type: biochemical; set-up: purchased R&D Systems, Ireland; details: read-out: inhibition of recombinant human MMP-9
MMP-9 [9] = target: T2, MMP-9; assay: Model of direct enzyme inhibition, MMP-9 (IC50); assay type: biochemical
MMP-1 = target: T3, MMP-1 (Homo sapiens, UniProt P03956); assay: Direct enzyme inhibition, MMP-1; assay type: biochemical
T3 sequence (P03956 100-469): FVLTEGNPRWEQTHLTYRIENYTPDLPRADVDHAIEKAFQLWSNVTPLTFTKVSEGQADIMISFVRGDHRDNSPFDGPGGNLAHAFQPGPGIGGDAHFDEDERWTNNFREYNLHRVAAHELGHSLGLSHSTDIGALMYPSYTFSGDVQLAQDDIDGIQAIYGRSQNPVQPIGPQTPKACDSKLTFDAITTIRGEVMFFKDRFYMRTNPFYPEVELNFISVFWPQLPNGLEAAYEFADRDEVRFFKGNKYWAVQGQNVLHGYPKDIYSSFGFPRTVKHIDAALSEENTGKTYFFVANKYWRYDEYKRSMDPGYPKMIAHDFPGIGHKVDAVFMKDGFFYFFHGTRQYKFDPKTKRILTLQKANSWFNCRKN

MMP-13 = MMP-13 (Homo sapiens, UniProt P45452); assay: Direct enzyme inhibition, MMP-13; assay type: biochemical
MMP-2 [10] = assay: PMA-stimulated CaCo2 cells, zymography of media, MMP-2; assay type: cell-based; details: 150 uM
MMP-2 [11] = assay: PMA stimulated breast cancer cell model (HT1080 cells), pro-MMP-2 / MMP-2; assay type: cell-based
[12] = 75 μM, 24 hours, TNFα, mean ± SEM
[13] = 150 μM, 24 hours, TNFα, mean ± SEM

T2 sequence (P14780 94-707): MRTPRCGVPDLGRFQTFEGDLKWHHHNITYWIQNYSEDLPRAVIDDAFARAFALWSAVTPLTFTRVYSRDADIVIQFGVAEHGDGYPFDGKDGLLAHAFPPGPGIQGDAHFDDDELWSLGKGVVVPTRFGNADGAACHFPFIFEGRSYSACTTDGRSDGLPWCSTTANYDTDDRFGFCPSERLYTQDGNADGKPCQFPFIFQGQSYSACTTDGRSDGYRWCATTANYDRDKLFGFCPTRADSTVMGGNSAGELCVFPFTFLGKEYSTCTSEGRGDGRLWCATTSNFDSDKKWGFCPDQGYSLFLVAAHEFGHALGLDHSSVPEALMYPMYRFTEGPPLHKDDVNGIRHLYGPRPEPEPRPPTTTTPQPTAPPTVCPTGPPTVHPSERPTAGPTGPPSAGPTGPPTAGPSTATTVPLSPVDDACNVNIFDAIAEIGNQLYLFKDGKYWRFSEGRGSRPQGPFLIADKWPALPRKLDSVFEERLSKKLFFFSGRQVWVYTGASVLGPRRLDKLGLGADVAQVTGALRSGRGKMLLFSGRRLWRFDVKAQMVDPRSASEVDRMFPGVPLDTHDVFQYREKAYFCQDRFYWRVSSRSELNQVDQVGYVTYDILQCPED
Chain of MMP-8 (P22894 101-467, species assumed): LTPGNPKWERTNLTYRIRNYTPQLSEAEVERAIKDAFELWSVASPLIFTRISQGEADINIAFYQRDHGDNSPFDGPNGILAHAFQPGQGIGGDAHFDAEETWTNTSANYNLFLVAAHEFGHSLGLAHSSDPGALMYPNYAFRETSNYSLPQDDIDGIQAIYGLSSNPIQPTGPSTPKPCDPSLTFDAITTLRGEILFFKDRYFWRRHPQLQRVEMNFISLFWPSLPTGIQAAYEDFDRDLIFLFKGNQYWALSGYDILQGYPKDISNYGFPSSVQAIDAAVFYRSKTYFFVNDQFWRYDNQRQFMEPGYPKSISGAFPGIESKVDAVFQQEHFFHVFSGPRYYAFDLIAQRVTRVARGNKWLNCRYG

Question: Which melting point does the source give for `C[C@H]1c2cccc(O)c2C(=O)C2=C(O)[C@]3(O)C(=O)C(C(=O)NCN4CCC(CO[N+](=O)[O-])CC4)=C(O)[C@@H](N(C)C)[C@@H]3[C@@H](O)[C@@H]21` [Example 7, amido-N-[4-(nitrooxymethyl)piperidinomethyl]-α-6-deoxy-5-oxytetracycline] here?
Answer: 130 to 132 °C

Question: Which “suppression of MMP-9 activity relative to PMA positive control” value (MMP-9 [1]) does the source give for `C[C@H]1c2cccc(O)c2C(=O)C2=C(O)[C@]3(O)C(=O)C(C(=O)NCN(CCO[N+](=O)[O-])CCO[N+](=O)[O-])=C(O)[C@@H](N(C)C)[C@@H]3[C@@H](O)[C@@H]21` [SI1004, amido-N—[N,N-diethylnitrate-aminomethyl]-α-6-deoxy-5-oxytetracycline] here?
Answer: approximately 60%

Question: What about the “colon cancer cell invasiveness” value (human colon cancer cells) of the same molecule?
Answer: more effective in reducing tumour cell invasiveness

Question: And the inhibition at 10 µM (MMP-8; 10 μM)?
Answer: ~26%

Question: And the inhibition at 100 µM (MMP-8; 100 μM)?
Answer: ~60.7%

Question: What about the “MMP-9 protein levels in treated cell supernatants” value (MMP-9 mRNA) of the same molecule?
Answer: below the lower limit of quantification

Question: And the “TNFα induced upregulation of MMP-9 mRNA” value (MMP-9 mRNA; 10 ng/mL TNFα 72 hours, 75 or 150 μM)?
Answer: significantly inhibited

Question: And the inhibition at 100 µM (MMP-2 [2])?
Answer: 29.7 ± 2.1%

Question: What about the diastolic blood pressure [3] of the same molecule?
Answer: 56.4±3.8 mmHg

Question: And the “mean systolic blood pressure” value [3]?
Answer: 101±6.3 mmHg

Question: And the “total plasma MMP-9, median AUC” value (MMP-9 [4]; NHPs, daily orogastric gavage for 72 hours, n=6)?
Answer: 4.3 µg·h/mL

Question: And the “change in MMP-9 from baseline to 72 hours” value (MMP-9 [4]; cynomolgus monkeys, oral gavage once daily for three days, n=6 per group)?
Answer: significantly reduced compared to doxycycline

Question: And the “suppression of total serum MMP-9 protein levels” value (MMP-9 [4]; cynomolgus monkeys, oral, daily for 3 days, vs doxycycline)?
Answer: more effective suppression

Question: And the “MMP-3 in in vitro inflammatory cell models” value [5]?
Answer: does not reduce MMP-3

Question: And the “Interleukin-1β protein level in PBMC supernatant” value [5, 12]?
Answer: 27.8 ± 6.6 ng/mL

Question: And the “Interleukin-4 protein level in PBMC supernatant” value [5, 12]?
Answer: 10.8 ± 0.2 ng/mL

Question: And the “Interleukin-5 protein level in PBMC supernatant” value [5, 12]?
Answer: 35.8 ± 8.4 ng/mL

Question: What about the “Interleukin-8 protein level in PBMC supernatant” value [5, 12] of the same molecule?
Answer: 10960 ± 484 ng/mL

Question: What about the “Interleukin-10 protein level in PBMC supernatant” value [5, 12] of the same molecule?
Answer: 125.6 ± 32.2 ng/mL

Question: And the “Interleukin-13 protein level in PBMC supernatant” value [5, 12]?
Answer: 80.8 ± 24.8 ng/mL

Question: And the “MMP-1 protein level in PBMC supernatant” value [5, 12]?
Answer: 208 ± 102 ng/mL

Question: And the “MMP-2 protein level in PBMC supernatant” value [5, 12]?
Answer: 120.4 ± 86.4 ng/mL

Question: And the “MMP-3 protein level in PBMC supernatant” value [5, 12]?
Answer: 8.7 ± 5.2 ng/mL

Question: What about the “MMP-10 protein level in PBMC supernatant” value [5, 12] of the same molecule?
Answer: 26.6 ± 18.4 ng/mL

Question: And the “Interleukin-5 protein level in PBMC supernatant” value [5, 13]?
Answer: 35.6 ± 6.4 ng/mL

Question: And the “Interleukin-10 protein level in PBMC supernatant” value [5, 13]?
Answer: 142.0 ± 55.2 ng/mL

Question: And the “Interleukin-13 protein level in PBMC supernatant” value [5, 13]?
Answer: 89.4 ± 13.2 ng/mL

Question: And the “MMP-1 protein level in PBMC supernatant” value [5, 13]?
Answer: 171 ± 66.0 ng/mL

Question: What about the “MMP-2 protein level in PBMC supernatant” value [5, 13] of the same molecule?
Answer: 95.4 ± 52 ng/mL

Question: What about the “MMP-3 protein level in PBMC supernatant” value [5, 13] of the same molecule?
Answer: 9.1 ± 6.1 ng/mL

Question: What about the “MMP-10 protein level in PBMC supernatant” value [5, 13] of the same molecule?
Answer: 29.0 ± 14.6 ng/mL

Question: What about the “MMP-2 mRNA expression” value (MMP-2 mRNA) of the same molecule?
Answer: no significant effects

Question: What about the “inhibition of HCF proliferation” value ([6]; 75-150 μM, 2% FCS following serum starvation for 72 hours) of the same molecule?
Answer: significant inhibition

Question: What about the “inhibition of cardiac fibroblast proliferation (admixture study, FIG. 13)” value ([6]; 150 micromolar) of the same molecule?
Answer: significantly more effective at inhibiting cardiac fibroblast proliferation

Question: And the IC50 (MMP-2 [7])?
Answer: 9.4 µM

Question: And the inhibition at 100 µM (MMP-9 [8])?
Answer: 26.6 ± 1.7%

Question: And the melting point?
Answer: 101 to 104 °C

Question: And the IC50 (MMP-9 [9])?
Answer: 25 µM

Question: And the inhibition at 10 µM (MMP-1; 10 μM)?
Answer: ~19%

Question: And the inhibition at 100 µM (MMP-1; 100 μM)?
Answer: ~63%

Question: And the inhibition at 10 µM (MMP-13; 10 μM)?
Answer: ~46%

Question: What about the MMP-13 inhibition (MMP-13; at 1000 (so in the source)) of the same molecule?
Answer: around 74.5%

Question: What about the “inhibition of MMP-2 activity relative to PMA positive control” value (MMP-2 [10]) of the same molecule?
Answer: about 40%

Question: What about the “conversion of pro-MMP-2 to active MMP-2 (activation of MMP-2)” value (MMP-2 [11]) of the same molecule?
Answer: do not appear to activate MMP-2
